{
  "source": "patent US20230123585A1",
  "about": "“COMPOSITIONS AND METHODS FOR TREATING OR PREVENTING CANCER USING DEUBIQUITINASE INHIBITORS” (The University of Chicago, priority 2020, published 2023)",
  "system": "pluripotency transcripts in R-WT mESCs",
  "assay": "Turnover of m^6A-labeled pluripotency transcripts by qPCR after actinomycin D in mESCs",
  "assay_type": "cell-based, mouse",
  "conditions": "10 μM PD0325901, 5 μg/ml actinomycin D",
  "text": "FIGS. 4A-4E: Phosphorylation of METTL3/WTAP by ERK Facilitates Resolution of Pluripotency. (A) LC-MS/MS quantification of the m^6A/A ratio in mRNA of mESC stable transfectants. (B) Representative flow cytometry analyses of mESC stable transfectants for the activity of alkaline phosphatase (AP) and expression of stage-specific embryonic antigen-1 (SSEA-1). (C) qPCR analysis of pluripotency genes in R-3A2A versus R-WT mESCs. (D) Relative levels of Nanog, measured by qPCR, at the indicate times after 5 μg/ml actinomycin D treatment. mRNA levels were monitored in R-WT (black), R-WT with 10 μM PD0325901 (green), and R-3A2A (red) mESC. (E) qPCR analysis for pluripotency and differentiation markers expression after 8 days of embryonic body (EB) induction. Error bars indicated SD (n=3). (See also FIG. 12.)\nFIGS. 12A-12I: Phosphorylation of METTL3/WTAP by ERK Facilitates Resolution of Pluripotency. (A) Representative phase-contrast microscopy showing colony size of R-3A2A versus R-WT mESC cells. (B) Cell growth of R-WT and R-3A2A mESCs were measured by sulforhodamine B dye (SRB assay). […] (D-H) Relative levels of Zfp42, Klf2, Sox2, Lefty1, and Pou5f 1, measured by qPCR, at the indicate times after 5 μg/ml actinomycin D treatment. mRNA levels were monitored in R-WT (black), R-WT with 10 μM PD0325901 (green), and R-3A2A (red) mESCs. […]",
  "data": [
    {"smiles": "O=C(NOC[C@H](O)CO)c1ccc(F)c(F)c1Nc1ccc(I)cc1F", "note": "[PD0325901]", "values": [
      {"measurement": "turnover of m^6A-labeled pluripotency transcripts after transcription arrest", "result": "delayed turnover"}
    ]}
  ]
}
